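How tested: cells in 96-well plates exposed to compound for 48 hours at five concentrations. GI50 marks 50% less growth.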 Calls of active or inactive are those of the source. Rule as the data show it: active = GI50 up to about 1.1 µM and inactive = higher.

Assay in all cases: NCI tumour cell line growth inhibition, 48 h
The test system of experiment [1] is ACHN.
Experiment [2] has as its system OVCAR-5.
Experiment [3] relates to U-251.
Experiment [4] concerns IGROV-1.
Experiment [5] deals with SNB-19.
Experiment [6] deals with EKVX.
For experiment [7], the system named is SF-268.
Experiment [8] deals with RPMI-8226.
Experiment [9] has as its system UO-31.
The subject of experiment [10] is SK-MEL-28.
Experiment [11] deals with M14.
Experiment [12] relates to Malme-3M.
Experiment [13] relates to M19-MEL.
The test system of experiment [14] is NCI-H226.
Experiment [15] relates to SK-OV-3.
Experiment [16] has as its system RXF 393.
Experiment [17] has as its system NCI/ADR-RES.
Experiment [18] concerns MDA-MB-231.
The test system of experiment [19] is DU-145.
In experiment [20] the test system is MDA-MB-435.

In the case of `O=C1C(=Cc2ccc(F)cc2)C(=O)c2ccccc21`, the GI50 in [1], in [2], in [3], in [4], in experiment [5] and in experiment [6] was > 100 µM (inactive) in each case. The GI50 in experiment [7] was > 100 µM (inactive); in [8] it was 49.8 µM (inactive); in experiment [9], > 100 µM (inactive); in experiment [10] it was > 100 µM (inactive); in experiment [11], > 100 µM (inactive); in experiment [12], > 100 µM (inactive). Further, the GI50 in experiment [13] was 96.2 µM (inactive); in [14], > 100 µM (inactive); in experiment [15] it was > 100 µM (inactive).
`COc1ccc(C(=O)C(CC2C(=O)NC(=O)NC2=O)c2ccc(OC)cc2)cc1` (centres undefined): the GI50 in experiment [1], in experiment [2], in [3], in experiment [4], in experiment [5] and in experiment [6] was > 100 µM (inactive) each time. In addition, the GI50 in [16], in experiment [7], in experiment [9], in experiment [10], in experiment [11] and in experiment [12] was > 100 µM (inactive) each time. Further, the GI50 in [13], in experiment [14] and in experiment [15] was > 100 µM (inactive) in each case.
`CCC12C=CCN(CCc3c([nH]c4ccccc34)/C=C\1)C2` (centres undefined): the GI50 in experiment [1], in experiment [3], in experiment [4], in [5], in experiment [6] and in experiment [7] was > 100 µM (inactive) throughout. Moreover, the GI50 in [8], in experiment [9], in experiment [11], in [12], in experiment [13] and in [14] was > 100 µM (inactive) each time.
With `CSc1nnc(COc2ccc(Cl)cc2)o1`, the GI50 in [1], in [2], in experiment [3], in experiment [4], in experiment [5] and in [6] was > 100 µM (inactive) each time. For the same compound, the GI50 in experiment [16], in [7], in experiment [9], in experiment [10], in experiment [11] and in experiment [12] was > 100 µM (inactive) in each case. In addition, the GI50 in [13] and in [15] was > 100 µM (inactive) throughout.
Consider `CC(=O)Nc1ccc2cc3[nH]c4cc(NC(C)=O)ccc4c3nc2c1`, for which the GI50 in experiment [1] is > 100 µM (inactive); in experiment [2], > 100 µM (inactive); in [17], > 100 µM (inactive); in experiment [3], 77.4 µM (inactive); in [4], > 100 µM (inactive); in [18] it was > 100 µM (inactive). Also, the GI50 in experiment [5], in experiment [6], in experiment [16], in experiment [7], in experiment [8] and in experiment [9] was > 100 µM (inactive) each time. For the same compound, the GI50 in [19], in experiment [10], in experiment [11], in [12], in experiment [20] and in experiment [14] was > 100 µM (inactive) in each case. The GI50 in experiment [15] is > 100 µM (inactive).
Consider `O=C(O)c1cccc(CC(Br)C(=O)O)c1` (centres undefined), for which the GI50 in [1], in [2], in [17], in experiment [3], in experiment [4] and in [18] was > 100 µM (inactive) throughout. The GI50 in experiment [5], in experiment [6], in experiment [16], in experiment [7], in experiment [8] and in experiment [9] was > 100 µM (inactive) throughout. Also, the GI50 in experiment [19], in experiment [10], in experiment [11], in experiment [12], in [20] and in experiment [14] was > 100 µM (inactive) throughout. Moreover, in [15], the GI50 was > 100 µM (inactive).
Consider `CCn1c2ccc(C(=O)CCCN3CCCCC3)cc2c2cc(C(=O)CCCN3CCCCC3)ccc21`, for which the GI50 in [1] was 1.74 µM (inactive); in experiment [2], 6.95 µM (inactive); in experiment [17], 3.78 µM (inactive); in [3], 2.13 µM (inactive); in [4], 2.08 µM (inactive); in [18], 1.83 µM (inactive). Also, the GI50 was 2.58 µM (inactive) in experiment [5]; 4.84 µM (inactive) in experiment [6]; 2.63 µM (inactive) in experiment [16]; 4.94 µM (inactive) in [7]; 1.75 µM (inactive) in experiment [8]; 5.32 µM (inactive) in [9]. The GI50 in experiment [19] was 5.33 µM (inactive); in [10], 19.3 µM (inactive); in [11] it was 2.04 µM (inactive); in experiment [12] it was 6.85 µM (inactive); in [20], 1.72 µM (inactive); in experiment [14], 11.9 µM (inactive). Moreover, in [15], the GI50 is 3.43 µM (inactive).
As to `Oc1c(OCc2nnc(CCCCCCCCc3nnc(COc4ccc5ccccc5c4O)n3Nc3ccccc3)n2Nc2ccccc2)ccc2ccccc12`, the GI50 in [1] is 0.845 µM (active); in experiment [2], 5.47 µM (inactive); in experiment [17] it was 11 µM (inactive); in experiment [3], 12 µM (inactive); in experiment [4], 12 µM (inactive); in experiment [18], 8.95 µM (inactive). Also, the GI50 was 11.8 µM (inactive) in experiment [5]; 11.6 µM (inactive) in [6]; 16.2 µM (inactive) in [16]; 10.7 µM (inactive) in experiment [7]; 0.682 µM (active) in experiment [8]; 2.58 µM (inactive) in experiment [9]. In addition, the GI50 was 14.6 µM (inactive) in experiment [19]; 2.07 µM (inactive) in [10]; 1.97 µM (inactive) in experiment [11]; 9.33 µM (inactive) in [12]; 2.46 µM (inactive) in experiment [20]; 7.55 µM (inactive) in experiment [14]. Further, the GI50 in [15] was 9.77 µM (inactive).
In the case of `O=c1[nH]c(=O)n(C2CC(O)C(CO)O2)cc1OCc1ccccc1` (centres undefined), the GI50 in [1], in [2], in [17], in [3], in experiment [4] and in [18] was > 100 µM (inactive) each time. The GI50 in experiment [5], in experiment [6], in [16], in [7], in [8] and in experiment [9] was > 100 µM (inactive) in each case. Also, the GI50 in experiment [19], in experiment [10], in experiment [11], in experiment [12], in experiment [20] and in experiment [14] was > 100 µM (inactive) each time. Besides, the GI50 in [15] was > 100 µM (inactive).
Consider `CC(C)OP(=O)(OC(C)C)C(C)(C)O`, for which the GI50 in experiment [1], in experiment [2], in [17], in experiment [3], in [4] and in [18] was > 100 µM (inactive) each time. The GI50 in experiment [5], in [6], in [16], in [7], in [8] and in experiment [9] was > 100 µM (inactive) throughout. Moreover, the GI50 in [19], in experiment [10], in [11], in experiment [12], in experiment [20] and in [14] was > 100 µM (inactive) each time. The GI50 in experiment [15] is > 100 µM (inactive).
Take `Cn1c(=O)c2c(nc(N3CCOCC3)n2CCCNCC(O)c2ccc(O)c(O)c2)n(C)c1=O` (centres undefined): the GI50 was > 100 µM (inactive) in [1]; 23.9 µM (inactive) in experiment [2]; > 100 µM (inactive) in [17]; > 100 µM (inactive) in experiment [3]; > 100 µM (inactive) in experiment [4]; 0.0262 µM (active) in experiment [18]. Moreover, the GI50 in experiment [5], in [6], in [16], in experiment [7], in [8] and in experiment [9] was > 100 µM (inactive) in each case. Further, the GI50 is > 100 µM (inactive) in experiment [19]; > 100 µM (inactive) in experiment [10]; > 100 µM (inactive) in [11]; > 100 µM (inactive) in experiment [12]; 38.9 µM (inactive) in [20]; > 100 µM (inactive) in [14]. The GI50 in experiment [15] is > 100 µM (inactive).

Values taken from ChEMBL document CHEMBL1201862, “PubChem BioAssay data set” (2004).
